According to ChEMBL document CHEMBL3813592, “Discovery of Novel Tricyclic Heterocycles as Potent and Selective DPP-4 Inhibitors for the Treatment of Type 2 Diabetes” (ACS Med Chem Lett, 2016):
Calls of active or inactive are those of the source. No cut-off for these calls is given here.

What was measured:
Mus musculus [1] = experiment: Antidiabetic activity in C57BL/6N mouse assessed as reduction in blood glucose AUC at 3 mg/kg, po administered for 60 mins followed by dextrose challenge by OGTT; format: functional
Mus musculus [2] = experiment: Antidiabetic activity in C57BL/6N mouse assessed as reduction in blood glucose AUC at 1 mg/kg, po administered for 60 mins followed by dextrose challenge by OGTT; format: functional; set-up: scale not given: the % may be the effect or the level left
[3] = Intrinsic clearance in cynomolgus monkey hepatocytes assessed per 10^6 cells at 1 uM after 30 to 120 mins by LC-MS/MS analysis; format: ADME, cell-based, Macaca fascicularis, Hepatocyte; conditions: read-out: CLH
[4] = Intrinsic clearance in rat hepatocytes assessed per 10^6 cells at 1 uM after 30 to 120 mins by LC-MS/MS analysis; format: ADME, cell-based, Hepatocyte; conditions: read-out: CLH
Mus musculus [5] = experiment: Ex vivo inhibition of DPP4 in C57BL/6N mouse blood at 3 to 10 mg/kg, po measured after 2 to 6 hrs; format: functional
[6] = Plasma concentration in C57BL/6N mouse at 3 mg/kg, po administered for 60 mins followed by dextrose challenge during OGTT method; format: ADME, organism-based
Mus musculus [7] = experiment: Ex vivo inhibition of DPP4 in C57BL/6N mouse blood at 1 to 10 mg/kg, po measured after 24 hrs; format: functional, organism-based
[8] = Intrinsic clearance in dog hepatocytes assessed per 10^6 cells at 1 uM after 30 to 120 mins by LC-MS/MS analysis; format: ADME, cell-based, Canis lupus familiaris, Hepatocyte; conditions: read-out: CLH
Mus musculus [9] = experiment: Antidiabetic activity in C57BL/6N mouse assessed as reduction in blood glucose AUC at 10 mg/kg, po administered for 60 mins followed by dextrose challenge by OGTT; format: functional; set-up: scale not given: the % may be the effect or the level left
[10] = Plasma concentration in C57BL/6N mouse at 0.3 mg/kg, po administered for 60 mins followed by dextrose challenge during OGTT method; format: ADME, organism-based
[11] = Plasma concentration in C57BL/6N mouse at 1 mg/kg, po administered for 60 mins followed by dextrose challenge during OGTT method; format: ADME, organism-based
Mus musculus [12] = experiment: Antidiabetic activity in C57BL/6N mouse assessed as reduction in blood glucose AUC at 0.3 mg/kg, po administered for 60 mins followed by dextrose challenge by OGTT; format: functional; set-up: scale not given: the % may be the effect or the level left
[13] = Plasma concentration in C57BL/6N mouse at 10 mg/kg, po administered for 60 mins followed by dextrose challenge during OGTT method; format: ADME, organism-based
[14] = Intrinsic clearance in human hepatocytes assessed per 10^6 cells at 1 uM after 30 to 120 mins by LC-MS/MS analysis; format: ADME, cell-based, Hepatocyte; conditions: read-out: CLH
Mus musculus [15] = experiment: Antidiabetic activity in po dosed C57BL/6N mouse assessed as reduction in blood glucose AUC after 60 mins followed by dextrose challenge by OGTT; format: functional, organism-based

| SMILES | Activity (Mus musculus [1]) | Activity (Mus musculus [2]) | hepatocyte CLint at 1 µM [3] | hepatocyte CLint at 1 µM [4] | inhibition (INH) (Mus musculus [5]) | concentration at 1 h [6] | inhibition (Mus musculus [7]) | hepatocyte CLint at 1 µM [8] | Activity (Mus musculus [9]) | concentration at 1 h [10] | concentration at 1 h [11] | Activity (Mus musculus [12]) | concentration at 1 h [13] | hepatocyte CLint at 1 µM [14] | Activity (Mus musculus [15]) |
| --- | --- | --- | --- | --- | --- | --- | --- | --- | --- | --- | --- | --- | --- | --- | --- |
| Cn1c(=O)cc(N2CCC[C@@H](N)C2)n(Cc2ccccc2C#N)c1=O | Active | – | – | – | – | – | – | – | – | – | – | – | – | – | – |
| CN1C(=O)Cn2c1nc1nc(N3CCC[C@@H](N)C3)n(Cc3cc(F)ccc3C#N)c1c2=O | 64% | 52% | < 1 µL/min/1e6 cells | 0.3 µL/min/1e6 cells | >80% | 70 nM | inactive | < 1 µL/min/1e6 cells | 63% | 2 nM | 10 nM | 38% | 235 nM | 0.1 µL/min/1e6 cells | Dose-dependent effect |
